Test systems include NCI-H460; T47D; Hs-578T; HOP-92; SNB-19; SK-OV-3; RPMI-8226; BT-549; MOLT-4; K562; PC-3; NCI-H522; M14; RXF 393; UACC-257; TK-10; HT-29; A549; LOX IMVI; SF-539.
Assay in all cases: growth of human tumour cells (NCI), 48 h

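All cell lines were grown in 96-well plates and treated with compound for 48 hours. GI50 is the concentration that inhibits growth by half.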 Calls of active or inactive are those of the source. Cut-off read from the data, not from the text of the source: active = GI50 up to about 1.1 µM and inactive = higher.

For the compound `O=C(C[C@H](NC(=O)OCc1ccccc1)C(=O)NC1Cc2ccccc2OC1=O)OCc1ccccc1` (stereo partly drawn), the GI50 is 41.6 µM (inactive) in the test on NCI-H460; 94.8 µM (inactive) in the test on T47D; > 100 µM (inactive) in the test with Hs-578T; > 100 µM (inactive) with HOP-92; > 100 µM (inactive) with SNB-19; > 100 µM (inactive) with SK-OV-3. In addition, the GI50 in the test on RPMI-8226 is > 100 µM (inactive); with BT-549 it was > 100 µM (inactive); in the test on MOLT-4 it was > 100 µM (inactive); with K562 it was 15.7 µM (inactive); in the test with PC-3, 21.8 µM (inactive); in the test with NCI-H522, > 100 µM (inactive). Also, the GI50 with M14 and in the test on RXF 393 was > 100 µM (inactive) each time.

As for `O=C1CSC(/C(=C\c2ccc(Cl)cc2)c2nc3ccccc3[nH]2)=N1`, the GI50 in the test on NCI-H460 was 13.3 µM (inactive); with T47D it was 13.9 µM (inactive); in the test on Hs-578T it was 18.7 µM (inactive); with HOP-92 it was 12.4 µM (inactive); with UACC-257, 16.2 µM (inactive); in the test with SNB-19, 19.2 µM (inactive). The GI50 in the test with SK-OV-3 is 11.5 µM (inactive); in the test with RPMI-8226, 33.8 µM (inactive); in the test on BT-549 it was 19.2 µM (inactive); with MOLT-4 it was 51.8 µM (inactive); with K562, 34.4 µM (inactive); in the test on TK-10 it was 11.8 µM (inactive). The GI50 is 21.7 µM (inactive) in the test with HT-29; 4.05 µM (inactive) with A549; 19.5 µM (inactive) in the test with PC-3; 5.3 µM (inactive) with NCI-H522; 15.8 µM (inactive) with LOX IMVI; 22.6 µM (inactive) with M14. Further, the GI50 with SF-539 is 0.659 µM (active); with RXF 393 it was 0.738 µM (active).

Turning to `CC1=NN(c2ccc(S(=O)(=O)O)cc2)C2(C1)SCC(=O)N2c1nc2ccccc2s1` (stereo not drawn), the GI50 in the test on NCI-H460, in the test with T47D, in the test on Hs-578T, with HOP-92, in the test on UACC-257 and in the test on SNB-19 was > 100 µM (inactive) each time. Also, the GI50 in the test with SK-OV-3 was > 100 µM (inactive); in the test on RPMI-8226 it was > 100 µM (inactive); in the test on BT-549, > 100 µM (inactive); in the test with MOLT-4, 46.9 µM (inactive); with K562, > 100 µM (inactive); with TK-10, > 100 µM (inactive). The GI50 was > 100 µM (inactive) in the test with HT-29; > 100 µM (inactive) in the test with A549; > 100 µM (inactive) in the test on PC-3; > 100 µM (inactive) in the test on NCI-H522; 66.1 µM (inactive) in the test with LOX IMVI; > 100 µM (inactive) with M14. The GI50 with SF-539 and in the test on RXF 393 was > 100 µM (inactive) each time.

Take `Cc1ccc([N+](=O)[O-])cc1S(=O)(=O)Nc1ccc(C2=NOC(c3cccs3)C2)cc1` (stereo not drawn): the GI50 in the test with NCI-H460 was 9.66 µM (inactive); with T47D, 12.8 µM (inactive); in the test on Hs-578T, 20 µM (inactive); with HOP-92, 19.9 µM (inactive); in the test with UACC-257, 16.9 µM (inactive); with SNB-19, 13.8 µM (inactive). Also, the GI50 in the test with SK-OV-3 was 14.2 µM (inactive); with RPMI-8226, 10.4 µM (inactive); in the test with BT-549, 13.2 µM (inactive); in the test with MOLT-4, 4.04 µM (inactive); in the test with K562, 3.58 µM (inactive); in the test on TK-10, 16.4 µM (inactive). Also, the GI50 is 12.5 µM (inactive) with HT-29; 12.1 µM (inactive) in the test on A549; 8.93 µM (inactive) in the test with PC-3; 3.2 µM (inactive) in the test with NCI-H522; 11 µM (inactive) in the test on LOX IMVI; 5.98 µM (inactive) in the test on M14. For the same compound, the GI50 with SF-539 is 13.5 µM (inactive); with RXF 393, 5.02 µM (inactive).

Turning to `CC1=CC(=O)[C@@H](O)[C@]2(C)[C@H]3[C@@]4(O)OC[C@]35[C@H]([C@@H](C)[C@H]4O)[C@@H](O)C(=O)O[C@@H]5C[C@@H]12`, the GI50 in the test with NCI-H460 is 0.214 µM (active); in the test with T47D, 0.225 µM (active); in the test on Hs-578T it was 0.195 µM (active); in the test on HOP-92 it was 0.327 µM (active); in the test with UACC-257, 0.276 µM (active); with SNB-19, 0.115 µM (active). The GI50 with SK-OV-3 is 0.607 µM (active); with RPMI-8226, 0.445 µM (active); with BT-549 it was 0.318 µM (active); in the test with MOLT-4 it was 1.55 µM (inactive); in the test on K562, 0.475 µM (active); in the test with TK-10, 0.338 µM (active). Also, the GI50 in the test on HT-29 was 0.387 µM (active); with A549, 0.789 µM (active); in the test with PC-3 it was 0.293 µM (active); in the test on NCI-H522 it was 0.181 µM (active); with LOX IMVI, 0.0895 µM (active); in the test on M14, 0.25 µM (active). Besides, the GI50 in the test on SF-539 is 0.0743 µM (active); in the test with RXF 393, 0.391 µM (active).

With `COC(OC)C1OC(CO)C(n2cc(C)c(=O)[nH]c2=O)C1O` (stereo not drawn), the GI50 in the test with NCI-H460, with T47D, with Hs-578T, with HOP-92, with UACC-257 and in the test on SNB-19 was > 100 µM (inactive) in each case. Further, the GI50 in the test on SK-OV-3, in the test with RPMI-8226, with BT-549, in the test on MOLT-4, in the test on K562 and in the test on TK-10 was > 100 µM (inactive) throughout. The GI50 with HT-29, in the test on A549, in the test with PC-3, in the test with NCI-H522, in the test with LOX IMVI and in the test on M14 was > 100 µM (inactive) each time. In addition, the values for the GI50 in the test on SF-539 and in the test on RXF 393 were > 100 µM (inactive) and 61.7 µM (inactive), respectively.

For `CCOC(=O)NC(C(F)(F)F)(C(F)(F)F)P(=O)(OCC(C)C)OCC(C)C`, the GI50 in the test on NCI-H460 was 19.2 µM (inactive); in the test with T47D, 23.8 µM (inactive); with Hs-578T, 14.9 µM (inactive); in the test with HOP-92, 9.38 µM (inactive); in the test with SNB-19 it was 28.8 µM (inactive); in the test on SK-OV-3, 13.7 µM (inactive). The GI50 in the test on RPMI-8226 was 14.4 µM (inactive); with BT-549, 13.2 µM (inactive); in the test with K562 it was 7.28 µM (inactive); in the test on TK-10 it was 11.9 µM (inactive); with HT-29 it was 11.5 µM (inactive); in the test on A549, 22.3 µM (inactive). The GI50 in the test with PC-3 was 6.37 µM (inactive); with NCI-H522 it was 2.49 µM (inactive); in the test with LOX IMVI, 4.49 µM (inactive); in the test on M14, 11.6 µM (inactive); in the test with SF-539 it was 15.7 µM (inactive); with RXF 393, 11.3 µM (inactive).

Regarding `O=C1Nc2ccc(S(=O)(=O)O)cc2/C1=C1/Nc2ccc(Br)cc2C1=O`, the GI50 in the test with NCI-H460, in the test on T47D, in the test with Hs-578T, in the test with HOP-92, with UACC-257 and in the test on SNB-19 was > 100 µM (inactive) each time. For the same compound, the GI50 with SK-OV-3, in the test on RPMI-8226, in the test with BT-549, in the test with MOLT-4, in the test on K562 and in the test with TK-10 was > 100 µM (inactive) in each case. Further, the GI50 with HT-29, with A549, in the test on PC-3, with NCI-H522, with LOX IMVI and in the test on M14 was > 100 µM (inactive) in each case. For the same compound, the GI50 with RXF 393 was > 100 µM (inactive).

On to `COc1ccc(N2C(=O)C3c4[nH]c5ccc(OC)cc5c4C4CCC(C(C)C)CC4C3C2=O)cc1` (stereo not drawn), for which the GI50 with NCI-H460 was 27.5 µM (inactive); in the test with T47D, > 100 µM (inactive); with Hs-578T, 12.1 µM (inactive); in the test with HOP-92 it was > 54.2 µM (inactive); in the test with UACC-257, > 100 µM (inactive); with SNB-19, 35.6 µM (inactive). Moreover, the GI50 in the test on SK-OV-3 is 36.9 µM (inactive); in the test on RPMI-8226, > 100 µM (inactive); in the test on BT-549, > 100 µM (inactive); in the test on MOLT-4, 28.8 µM (inactive); with K562 it was 18.3 µM (inactive); with TK-10, > 100 µM (inactive). In addition, the GI50 with HT-29 is > 100 µM (inactive); with A549, > 72.4 µM (inactive); with PC-3, > 100 µM (inactive); in the test with NCI-H522, 18.1 µM (inactive); in the test on LOX IMVI, > 100 µM (inactive); in the test with M14, 34.1 µM (inactive). For the same compound, the GI50 with RXF 393 was 31 µM (inactive).

With `N/N=C(\C(=O)Nc1ccc(Cl)cc1Cl)C(c1cnc2ccccc2n1)[N+](=O)[O-]` (stereo not drawn), the GI50 in the test on NCI-H460, in the test on T47D, with Hs-578T, with HOP-92, in the test with UACC-257 and in the test with SK-OV-3 was > 100 µM (inactive) each time. Further, the GI50 with RPMI-8226, in the test on BT-549, in the test with K562, in the test on TK-10, in the test with HT-29 and in the test on A549 was > 100 µM (inactive) in each case. The GI50 in the test with PC-3, in the test on NCI-H522, with LOX IMVI, with M14, with SF-539 and in the test on RXF 393 was > 100 µM (inactive) throughout.

(Values after ChEMBL document CHEMBL1201862, “PubChem BioAssay data set” (2004).)
